The source of these data is patent US20230365566A1, “HETEROCYCLIC AMIDES AND THEIR USE FOR MODULATING SPLICING” (REMIX THERAPEUTICS INC., priority 2020, published 2023).

Some results are limits rather than exact numbers.

What all share (format): cell-based
For one experiment, the system named is HTT CJ mRNA. Briefly: Gene panel canonical junction qPCR assay, HTT. Particulars: protocol of Example 42, read-out: HTT IC50 (decrease in CJ mRNA levels). On the procedure: (§1) Compounds described herein were used to modulate RNA transcript abundance in cells. The expression of a target mRNA was measured by detecting the formation of an exon-exon junction in the canonical transcript (CJ). A compound mediated exon-inclusion event was detected by observing an increase in formation of a new junction with an alternative exon (AJ). Real-time qPCR assays were used to detect these splicing switches and interrogate the potency of various compounds towards different target genes. A high-throughput real time quantitative PCR (RT-qPCR) assay was developed to measure these two isoforms of the mRNA (CJ and AJ) for an exemplary gene, HTT, together with a control housekeeping gene, GAPDH or GUSB or PPIA, used for normalization. Briefly, the A673 or K562 cell line was treated with various compounds described herein (e.g., compounds of Formula (I)). After treatment, the levels of the HTT mRNA targets were determined from each sample of cell lysate by cDNA synthesis followed by qPCR.
(§2) The A673 cell line was cultured in DMEM with 10% FBS. Cells were diluted with full growth media and plated in a 96-well plate (15,000 cells in 100 ul media per well). The plate was incubated at 37° C. with 5% CO2 for 24 hours to allow cells to adhere. An 11-point 3-fold serial dilution of the compounds was made in DMSO then diluted in media in an intermediate plate. Compounds were transferred from the intermediate plate to the cell plate with the top dose at a final concentration of 10 uM in the well. Final DMSO concentration was kept at or below 0.25%. The cell plate was returned to the incubator at 37° C. with 5% CO2 for an additional 24 hours.
(§3) The K562 cell line was cultured in IMDM with 10% FBS. For K562, cells were diluted with full growth media and plated in either a 96-well plate (50,000 cells in 50 uL media per well) or a 384-well plate (8,000-40,000 cells in 45 uL media per well). An 11-point 3-fold serial dilution of the compounds were made in DMSO then diluted in media in an intermediate plate. Compound was transferred from the intermediate plate to the cell plate with the top dose at a final concentration of 10 uM in the well. Final DMSO concentration was kept at or below 0.25%. Final volume was 100 uL for 96-well plate and 50 uL for 384-well plate. The cell plate was then placed in an incubator at 37° C. with 5% CO2 for 24 hours.
(§4) The data analysis was performed by first determining the ACt vs the housekeeper gene. This ACt was then normalized against the DMSO control (AACt) and converted to RQ (relative quantification) using the 2^(−ΔΔCt) equation. The RQ were then converted to a percentage response by arbitrarily setting an assay window of 3.5 ΔCt for HTT-CJ and an assay window of 9 ΔCt for HTT-AJ. […] The percentage response was then fitted to the 4 parametric logistic equation to evaluate the concentration dependence of compound treatment. The increase in AJ mRNA is reported as AC50 (compound concentration having 50% response in AJ increase) while the decrease in CJ mRNA levels is reported as IC50 (compound concentration having 50% response in CJ decrease).
(§5) Additional studies were carried out for a larger panel of genes using the protocol provided above. The junction between flanking upstream and downstream exons was used to design canonical junction qPCR assays. At least one of the forward primer, reverse primer or the CY5-labeled 5′ nuclease probe (with 3′ quencher such as ZEN/Iowa Black FQ) was designed to overlap with the exon junction to capture the CJ mRNA transcript. BLAST was used to confirm the specificity of the probeset and parameters such as melting temperature, GC content, amplicon size, and primer dimer formation are considered during their design. Data for the decrease in CJ mRNA levels for three exemplary genes (HTT, SMN2, and Target C) analyzed in this panel are reported as IC50 (compound concentration having 50% response in CJ decrease).
In general terms: Real-time PCR tracks product formation cycle by cycle.

A further experiment concerns SMN2 CJ mRNA. Description: Gene panel canonical junction qPCR assay, SMN2. Particulars: protocol of Example 42, read-out: SMN2 IC50 (decrease in CJ mRNA levels). On the procedure:
as §1, §2, §3, §4, §5

Another experiment deals with Target C CJ mRNA. Description: Gene panel canonical junction qPCR assay, Target C. Conditions: protocol of Example 42, read-out: Target C IC50 (decrease in CJ mRNA levels). On the procedure:
as §1, §2, §3, §4, §5

Experiment [1] has as its system HTT mRNA alternative junction (AJ). Briefly: Splicing RT-qPCR assay, increase of HTT alternative junction (AJ) mRNA. Particulars: A673 or K562 cells, 24 hours compound treatment, concentration having 50% response in AJ increase. As for the experimental part: as §1, §2, §3
(§6) The cells were then gently washed with 50 uL-100 uL cold PBS before proceeding to addition of lysis buffer. 30 uL-50 uL of room temperature lysis buffer with DNAse I (and optionally RNAsin) was added to each well. Cells were shaken/mixed thoroughly at room temperature for 5-10 minutes for lysis to take place and then 3 uL-5 uL of room temperature stop solution was added and wells were shaken/mixed again. After 2-5 minutes, the cell lysate plate was transferred to ice for RT-qPCR reaction setup. The lysates could also be frozen at −80° C. for later use.
(§7) In some cases, a direct lysis buffer was used. An appropriate volume of 3× lysis buffer (10 mM Tris, 150 mM NaCl, 1.5%-2.5% Igepal and 0.1-1 U/uL RNAsin, pH 7.4) was directly added to either K562 or A673 cells in media and mixed by pipetting 3 times. The plates were then incubated at room temperature with shaking/rocking for 20-50 minutes to allow for lysis to take place. After this time, the cell lysate plate was transferred to ice to set up for the RT-qPCR reactions. The lysates could also be frozen at −80° C. for later use.
(§8) To set up 10 uL RT-qPCR reactions, cell lysates were transferred to 384-well qPCR plates containing the master mix according to the table below. The plates were sealed, gently vortexed, and spun down before the run. The volumes were adjusted accordingly in some instances where the reaction was carried in 20 uL. The table below summarizes the components of the RT-qPCR reactions:
(§9) The RT-qPCR reaction was performed using a QuantStudio (ThermoFisher) under the following fast cycling conditions. […]

Experiment [2] has as its system HTT mRNA canonical junction (CJ). Description: Splicing RT-qPCR assay, decrease of HTT canonical junction (CJ) mRNA. Particulars: A673 or K562 cells, 24 hours compound treatment, concentration having 50% response in CJ decrease. On the procedure:
as §1, §2, §3, §6, §7, §8, §9

One may read the IC50 as the concentration that gives 50% inhibition. A word on the AC50: it is the concentration giving half of the maximal activity seen. As for `Cc1cn2cc(NC(=O)c3ccc(N4CCC(N5CCCC5)C4)c4cc(C)oc34)cc(F)c2n1` (centres unmarked) [Compound 204, 4-[[1,3′-bipyrrolidin]-1′-yl]-N-[8-fluoro-2-methylimidazo[1,2-a]pyridin-6-yl]-2-methyl-1-benzofuran-7-carboxamide], the values for the IC50 in the experiment on HTT CJ mRNA, in the experiment with SMN2 CJ mRNA and with Target C CJ mRNA were 1 to 10 µM, less than 0.1 µM and 1 to 10 µM, respectively. For the same molecule, the AC50 in experiment [1] and in experiment [2] was 1 to 10 µM each time.
Regarding `Cc1cn2cc(NC(=O)c3ccc(N4CC5(CNC5)C4)c4cc(C)oc34)cc(F)c2n1` [Compound 205], the IC50 in the experiment with HTT CJ mRNA is 0.1 to 1 µM; in the experiment with SMN2 CJ mRNA, less than 0.1 µM; in the experiment on Target C CJ mRNA, 1 to 10 µM. Besides, the half-maximal activity concentration (AC50) in experiment [1] lay within 1 to 10 µM; in experiment [2], 0.1 to 1 µM.
On to `Cc1cn2cc(NC(=O)c3ccc(N4CC5(CN(C)C5)C4)c4cc(C)oc34)cc(F)c2n1` [Compound 206], for which the results for the IC50 in the experiment on HTT CJ mRNA, with SMN2 CJ mRNA and in the experiment with Target C CJ mRNA were 1 to 10 µM, less than 0.1 µM and more than 10 µM, respectively. Also, the concentration at half-maximal activity (AC50) in experiment [1] and in experiment [2] was 1 to 10 µM throughout.
With `Cc1cn2cc(NC(=O)c3ccc(N4CCN(C)CC4)c4cn(C)nc34)cc(F)c2n1` [Compound 207], the IC50 in the experiment with HTT CJ mRNA was 0.1 to 1 µM; in the experiment on SMN2 CJ mRNA, less than 0.1 µM; in the experiment on Target C CJ mRNA it was 1 to 10 µM. For the same molecule, the AC50 in experiment [1] and in experiment [2] was 0.1 to 1 µM in each case.
With `Cc1cn2cc(NC(=O)c3ccc(C4CCNCC4)c4cn(C)nc34)cc(F)c2n1` [Compound 208, N-[8-fluoro-2-methylimidazo[1,2-a]pyridin-6-yl]-2-methyl-4-(piperidin-4-yl)indazole-7-carboxamide], the IC50 was 0.1 to 1 µM in the experiment with HTT CJ mRNA, less than 0.1 µM in the experiment on SMN2 CJ mRNA and 1 to 10 µM in the experiment with Target C CJ mRNA. Besides, the half-maximal activity concentration (AC50) in experiment [1] and in experiment [2] was 0.1 to 1 µM each time.
As to `Cc1cn2cc(NC(=O)c3ccc(C4CCN(C)CC4)c4cn(C)nc34)cc(F)c2n1` [Compound 209, N-[8-fluoro-2-methylimidazo[1,2-a]pyridin-6-yl]-2-methyl-4-(1-methylpiperidin-4-yl)indazole-7-carboxamide], the IC50 was 0.1 to 1 µM in the experiment with HTT CJ mRNA, more than 10 µM in the experiment on SMN2 CJ mRNA and 1 to 10 µM in the experiment with Target C CJ mRNA. Further, the AC50 in experiment [1] and in experiment [2] was 0.1 to 1 µM each time.
`CCN1CCC(c2ccc(C(=O)Nc3cc(F)c4nc(C)cn4c3)c3nn(C)cc23)CC1` [Compound 210, 4-(1-ethylpiperidin-4-yl)-N-[8-fluoro-2-methylimidazo[1,2-a]pyridin-6-yl]-2-methylindazole-7-carboxamide]: the IC50 in the experiment on HTT CJ mRNA was 0.1 to 1 µM; in the experiment with SMN2 CJ mRNA, less than 0.1 µM; with Target C CJ mRNA, 1 to 10 µM. Further, the AC50 in experiment [1] and in experiment [2] was 0.1 to 1 µM in each case.
For the molecule `Cc1cn2cc(NC(=O)c3ccc(C4C[C@@H](C)N[C@@H](C)C4)c4cn(C)nc34)cc(F)c2n1` (stereo partly drawn) [Compound 211, 4-[(cis-)-2,6-dimethylpiperidin-4-yl]-N-[8-fluoro-2-methylimidazo[1,2-a]pyridin-6-yl]-2-methylindazole-7-carboxamide trifluoroacetic acid], the IC50 was 1 to 10 µM in the experiment with HTT CJ mRNA, less than 0.1 µM in the experiment with SMN2 CJ mRNA and more than 10 µM in the experiment with Target C CJ mRNA. In addition, the AC50 in experiment [1] and in experiment [2] was 1 to 10 µM in each case.
Take `Cc1cn2cc(NC(=O)c3ccc(C4CC(C)(C)NC(C)(C)C4)c4cn(C)nc34)cc(F)c2n1` [Compound 212, N-[8-fluoro-2-methylimidazo[1,2-a]pyridin-6-yl]-2-methyl-4-(2,2,6,6-tetramethylpiperidin-4-yl)indazole-7-carboxamide]: the IC50 was 1 to 10 µM in the experiment with HTT CJ mRNA, 0.1 to 1 µM with SMN2 CJ mRNA and more than 10 µM with Target C CJ mRNA. In addition, the AC50 in experiment [1] was more than 10 µM; in experiment [2], 1 to 10 µM.
Consider `Cc1cc2c(N3CCNCC3)ccc(C(=O)Nc3cc(F)c4cn(C)nc4c3)c2o1` [Compound 217, N-(4-fluoro-2-methylindazol-6-yl)-2-methyl-4-(piperazin-1-yl)-1-benzofuran-7-carboxamide], for which the IC50 with HTT CJ mRNA was 1 to 10 µM; in the experiment on SMN2 CJ mRNA it was 1 to 10 µM; in the experiment with Target C CJ mRNA, more than 10 µM. Further, the AC50 in experiment [1] and in experiment [2] was 1 to 10 µM throughout.
Take `Cc1cn2cc(NC(=O)c3ccc(N4CCNC(C)C4)c4cn(C)nc34)cc(F)c2n1` (centres unmarked) [Compound 228]: the IC50 was 0.1 to 1 µM in the experiment with HTT CJ mRNA, less than 0.1 µM in the experiment with SMN2 CJ mRNA and 0.1 to 1 µM in the experiment on Target C CJ mRNA. The concentration at half-maximal activity (AC50) in experiment [1] and in experiment [2] was 0.1 to 1 µM each time.
In the case of `Cc1cn2cc(NC(=O)c3ccc(N4CCN(C)C(C)C4)c4cn(C)nc34)cc(F)c2n1` (centres unmarked) [Compound 229], the results for the IC50 in the experiment with HTT CJ mRNA, in the experiment on SMN2 CJ mRNA and with Target C CJ mRNA were 0.1 to 1 µM, less than 0.1 µM and 1 to 10 µM, respectively. Also, the concentration at half-maximal activity (AC50) in experiment [1] and in experiment [2] was 0.1 to 1 µM throughout.
On to `Cn1cc2ccc(NC(=O)c3ccc(N4CCNCC4)c4cn(C)nc34)cc2n1` [Compound 230], for which the half-maximal inhibitory concentration (IC50) with HTT CJ mRNA, in the experiment on SMN2 CJ mRNA and with Target C CJ mRNA was more than 10 µM in each case. Moreover, the AC50 in experiment [1] and in experiment [2] was more than 10 µM in each case.
With `Cn1cc2c(F)cc(NC(=O)c3ccc(N4CCNCC4)c4cn(C)nc34)cc2n1` [Compound 231], the IC50 with HTT CJ mRNA, with SMN2 CJ mRNA and in the experiment with Target C CJ mRNA was more than 10 µM throughout. The AC50 in experiment [1] and in experiment [2] was more than 10 µM each time.
In the case of `Cc1nc2c(F)cc(NC(=O)c3ccc(N4CCNCC4)c4cn(C)nc34)cc2o1` [Compound 234], the IC50 was 1 to 10 µM in the experiment on HTT CJ mRNA, less than 0.1 µM in the experiment on SMN2 CJ mRNA and 1 to 10 µM in the experiment with Target C CJ mRNA. Further, the AC50 in experiment [1] was 0.1 to 1 µM; in experiment [2] it was 1 to 10 µM.
For `Cc1nc2c(F)cc(NC(=O)c3ccc(N4CCNCC4)c4cn(C)nc34)cc2s1` [Compound 235], the IC50 in the experiment with HTT CJ mRNA is 1 to 10 µM; in the experiment on SMN2 CJ mRNA, less than 0.1 µM; with Target C CJ mRNA, more than 10 µM. Besides, the AC50 in experiment [1] and in experiment [2] was 1 to 10 µM in each case.
